Tested on: MV-4-11 cells
Assay: Gene expression microarray analysis (Affymetrix PrimeView) and GSEA
Type: cell-based, human
Parameters: RFU PODN (11730768_x_at) / Fold change /veh PODN (11730768_x_at) / RFU LINC00158 (11744669_a_at) / Fold change /veh LINC00158 (11744669_a_at) / RFU DUSP10 (11751237_a_at) / Fold change /veh DUSP10 (11751237_a_at) / RFU ID3 (11757404_x_at) / Fold change /veh ID3 (11757404_x_at) / RFU PLEKHG5 (11737974_s_at) / Fold change /veh PLEKHG5 (11737974_s_at) / RFU LRRC4B (11730491_at) / Fold change /veh LRRC4B (11730491_at) / RFU GIMAP4 (11747438_a_at) / Fold change /veh GIMAP4 (11747438_a_at) / RFU KRT8 (11758183_x_at) / Fold change /veh KRT8 (11758183_x_at) / RFU CNN1 (11734310_a_at) / Fold change /veh CNN1 (11734310_a_at) / RFU VPS37D (11726825_at) / Fold change /veh VPS37D (11726825_at) / RFU C10orf10 (11716522_x_at) / Fold change /veh C10orf10 (11716522_x_at) / RFU KIR2DL2 /// KIR2DL4 /// KIR2DL5A /// KIR2DL5B /// KIR2DS1 /// KIR2DS2 /// KIR2DS3 /// KIR2DS4 /// KIR3DL3 /// KIR3DL3 /// KIR3DS1 (11738374_at) / Fold change /veh KIR2DL2 /// KIR2DL4 /// KIR2DL5A /// KIR2DL5B /// KIR2DS1 /// KIR2DS2 /// KIR2DS3 /// KIR2DS4 /// KIR3DL3 /// KIR3DL3 /// KIR3DS1 (11738374_at) / RFU C1QL1 (11718748_at) / Fold change /veh C1QL1 (11718748_at) / RFU TMPRSS4 (11747572_a_at) / Fold change /veh TMPRSS4 (11747572_a_at) / RFU HAMP (11756126_x_at) / Fold change /veh HAMP (11756126_x_at) / RFU RNFT2 (11725882_a_at) / Fold change /veh RNFT2 (11725882_a_at) / RFU NR4A2 (11747474_a_at) / Fold change /veh NR4A2 (11747474_a_at) / RFU ABCC12 (11746883_a_at) / Fold change /veh ABCC12 (11746883_a_at) / RFU TMEM136 (11760407_x_at) / Fold change /veh TMEM136 (11760407_x_at) / RFU CLDN22 /// WWC2 (11732394_at) / Fold change /veh CLDN22 /// WWC2 (11732394_at) / RFU HLA-DPB1 (11760878_x_at) / Fold change /veh HLA-DPB1 (11760878_x_at) / RFU SPINT1 (11716480_a_at) / Fold change /veh SPINT1 (11716480_a_at) / RFU GAP43 (11754022_s_at) / Fold change /veh GAP43 (11754022_s_at) / RFU A4GNT (11735810_at) / Fold change /veh A4GNT (11735810_at) / RFU PRB3 (11715151_x_at) / Fold change /veh PRB3 (11715151_x_at) / RFU TUBB4B (11761932_at) / Fold change /veh TUBB4B (11761932_at) / RFU CAPN14 (11732068_a_at) / Fold change /veh CAPN14 (11732068_a_at) / RFU TMCC2 (11721928_a_at) / Fold change /veh TMCC2 (11721928_a_at) / RFU IRGQ (11745062_a_at) / Fold change /veh IRGQ (11745062_a_at) / RFU FAM174B (11720279_a_at) / Fold change /veh FAM174B (11720279_a_at) / RFU TMPRSS4 (11748680_a_at) / Fold change /veh TMPRSS4 (11748680_a_at) / RFU FAM212B (11763350_a_at) / Fold change /veh FAM212B (11763350_a_at) / RFU PLEKHG5 (11743358_a_at) / Fold change /veh PLEKHG5 (11743358_a_at) / RFU ZSCAN30 (11745921_a_at) / Fold change /veh ZSCAN30 (11745921_a_at) / RFU CMKLR1 (11741424_a_at) / Fold change /veh CMKLR1 (11741424_a_at) / RFU LOC101060620 /// MAPK8IP1 (11723275_at) / Fold change /veh LOC101060620 /// MAPK8IP1 (11723275_at) / RFU SPTSSB (11747773_x_at) / Fold change /veh SPTSSB (11747773_x_at) / RFU PRSS12 (11739890_at) / Fold change /veh PRSS12 (11739890_at) / RFU BIN1 (11741810_x_at) / Fold change /veh BIN1 (11741810_x_at) / RFU WNT11 (11732464_a_at) / Fold change /veh WNT11 (11732464_a_at) / RFU C10orf10 (11716521_a_at) / Fold change /veh C10orf10 (11716521_a_at) / RFU C5orf56 (11738089_at) / Fold change /veh C5orf56 (11738089_at) / RFU CYB561 (11721691_x_at) / Fold change /veh CYB561 (11721691_x_at) / RFU ANKRD19P (11752326_a_at) / Fold change /veh ANKRD19P (11752326_a_at) / RFU OR2T12 /// OR2T33 /// OR2T8 (11738714_s_at) / Fold change /veh OR2T12 /// OR2T33 /// OR2T8 (11738714_s_at) / RFU VCAN (11748164_a_at) / Fold change /veh VCAN (11748164_a_at) / RFU JSRP1 (11732532_at) / Fold change /veh JSRP1 (11732532_at) / RFU KRTAP10-11 (11738290_x_at) / Fold change /veh KRTAP10-11 (11738290_x_at) / RFU MYO3A (11730013_a_at) / Fold change /veh MYO3A (11730013_a_at) / RFU EBF3 (11725865_a_at) / Fold change /veh EBF3 (11725865_a_at) / RFU CAMK2N1 (11719241_x_at) / Fold change /veh CAMK2N1 (11719241_x_at) / RFU C5orf56 (11738088_a_at) / Fold change /veh C5orf56 (11738088_a_at) / RFU OLFML3 (11715873_a_at) / Fold change /veh OLFML3 (11715873_a_at) / RFU LOC100653217 /// NTM (11731650_a_at) / Fold change /veh LOC100653217 /// NTM (11731650_a_at) / RFU MAPK11 (11762145_a_at) / Fold change /veh MAPK11 (11762145_a_at) / RFU FIZ1 (11724087_x_at) / Fold change /veh FIZ1 (11724087_x_at) / RFU OASL (11726364_x_at) / Fold change /veh OASL (11726364_x_at) / RFU SOX15 (11748057_x_at) / Fold change /veh SOX15 (11748057_x_at) / RFU CD79A (11719716_a_at) / Fold change /veh CD79A (11719716_a_at) / RFU HIST1H1D (11736915_at) / Fold change /veh HIST1H1D (11736915_at) / RFU CASKIN2 (11723855_a_at) / Fold change /veh CASKIN2 (11723855_a_at) / RFU LOC730098 (11760151_x_at) / Fold change /veh LOC730098 (11760151_x_at) / RFU OR4N2 (11742367_at) / Fold change /veh OR4N2 (11742367_at) / RFU PRRT2 (11749266_a_at) / Fold change /veh PRRT2 (11749266_a_at) / RFU SNX32 (11753110_a_at) / Fold change /veh SNX32 (11753110_a_at) / RFU CDHR5 (11726645_a_at) / Fold change /veh CDHR5 (11726645_a_at) / RFU RCAN1 (11760418_a_at) / Fold change /veh RCAN1 (11760418_a_at) / RFU FAM167A (11723789_a_at) / Fold change /veh FAM167A (11723789_a_at) / RFU FAM26E (11764081_at) / Fold change /veh FAM26E (11764081_at) / RFU ISYNA1 (11749810_s_at) / Fold change /veh ISYNA1 (11749810_s_at) / RFU ACY1 (11761880_at) / Fold change /veh ACY1 (11761880_at) / RFU 11764098_at / Fold change /veh 11764098_at / RFU SAMD14 (11745864_x_at) / Fold change /veh SAMD14 (11745864_x_at) / RFU NPB (11741838_a_at) / Fold change /veh NPB (11741838_a_at) / RFU TMPRSS6 (11731388_a_at) / Fold change /veh TMPRSS6 (11731388_a_at) / RFU KRTAP10-2 (11738614_at) / Fold change /veh KRTAP10-2 (11738614_at) / RFU ARHGAP8 /// PRR5-ARHGAP8 (11727945_x_at) / Fold change /veh ARHGAP8 /// PRR5-ARHGAP8 (11727945_x_at) / RFU KRTAP5-7 /// NADSYN1 (11734609_at) / Fold change /veh KRTAP5-7 /// NADSYN1 (11734609_at) / RFU RASL12 (11751679_a_at) / Fold change /veh RASL12 (11751679_a_at) / RFU CDKN2B (11736163_a_at) / Fold change /veh CDKN2B (11736163_a_at) / RFU PRF1 (11729649_at) / Fold change /veh PRF1 (11729649_at) / RFU, ZNF638 /// ZNF638-IT1 / Fold change vs veh, ZNF638 /// ZNF638-IT1 / RFU, PANK3 / Fold change vs veh, PANK3 / RFU, SH3YL1 / Fold change vs veh, SH3YL1 / RFU, ZEB2 / Fold change vs veh, ZEB2 / RFU, NRIP1 / Fold change vs veh, NRIP1 / RFU, PTTG1IP / Fold change vs veh, PTTG1IP / RFU, CAPN2 / Fold change vs veh, CAPN2 / RFU, MED14 / Fold change vs veh, MED14 / RFU, SNORA58 / Fold change vs veh, SNORA58 / RFU, C1orf63 / Fold change vs veh, C1orf63 / RFU, LRRFIP1 / Fold change vs veh, LRRFIP1 / RFU, NDUFAF7 / Fold change vs veh, NDUFAF7 / RFU, SLC12A2 / Fold change vs veh, SLC12A2 / RFU, IBTK / Fold change vs veh, IBTK / RFU, ESF1 / Fold change vs veh, ESF1 / Fold change vs veh, TMEM50B / RFU, TAOK1 / Fold change vs veh, TAOK1 / RFU, ACBD3 / Fold change vs veh, ACBD3 / RFU, TMA16 / Fold change vs veh, TMA16 / RFU, RWDD3 / Fold change vs veh, RWDD3 / RFU, BCAT1 / Fold change vs veh, BCAT1 / RFU, EDEM3 / Fold change vs veh, EDEM3 / RFU, TMEM33 / Fold change vs veh, TMEM33 / RFU, WDR75 / Fold change vs veh, WDR75 / RFU, AHCTF1 / Fold change vs veh, AHCTF1 / RFU, TFRC / Fold change vs veh, TFRC / RFU, ZDHHC17 / Fold change vs veh, ZDHHC17 / RFU, NOM1 / Fold change vs veh, NOM1 / RFU, ARL8B / Fold change vs veh, ARL8B / RFU, ZBTB11 / Fold change vs veh, ZBTB11 / RFU, TAMM41 / Fold change vs veh, TAMM41 / RFU, KIAA1704 /// LOC100996395 / Fold change vs veh, KIAA1704 /// LOC100996395 / RFU, ING1 / Fold change vs veh, ING1 / RFU, TRMT61B / Fold change vs veh, TRMT61B / RFU, FUBP3 / Fold change vs veh, FUBP3 / RFU, TP53 / Fold change vs veh, TP53 / RFU, TNKS2 / Fold change vs veh, TNKS2 / RFU, ZFP14 / Fold change vs veh, ZFP14 / RFU, ACTR2 / Fold change vs veh, ACTR2 / RFU, PPP3R1 / Fold change vs veh, PPP3R1 / RFU, PIK3R1 / Fold change vs veh, PIK3R1 / RFU, HNRNPA1 / Fold change vs veh, HNRNPA1 / RFU, RNF170 / Fold change vs veh, RNF170 / RFU, ZNF28 / Fold change vs veh, ZNF28 / RFU, RNGTT / Fold change vs veh, RNGTT / RFU, OGT / Fold change vs veh, OGT / RFU, BRD1 / Fold change vs veh, BRD1 / RFU, MARS / Fold change vs veh, MARS / RFU, ZNF655 / Fold change vs veh, ZNF655 / RFU, FAHD1 / Fold change vs veh, FAHD1 / RFU, BDP1 / Fold change vs veh, BDP1 / RFU, LRRCC1 / Fold change vs veh, LRRCC1 / RFU, ARID1A / Fold change vs veh, ARID1A / RFU, ZNF146 / Fold change vs veh, ZNF146 / RFU, ZNF330 / Fold change vs veh, ZNF330 / RFU, GPN3 / Fold change vs veh, GPN3 / RFU, C9orf123 / Fold change vs veh, C9orf123 / RFU, N4BP2L2 / Fold change vs veh, N4BP2L2 / RFU, ARFIP1 / Fold change vs veh, ARFIP1 / RFU, FAM179B / Fold change vs veh, FAM179B / RFU, BCL10 / Fold change vs veh, BCL10 / RFU, UHRF1BP1L / Fold change vs veh, UHRF1BP1L / RFU, BET1 / Fold change vs veh, BET1 / RFU, CNOT2 / Fold change vs veh, CNOT2 / RFU, ZNF268 / Fold change vs veh, ZNF268 / Fold change vs veh, ZNF507 / RFU, DGCR2 / Fold change vs veh, DGCR2 / RFU, WDSUB1 / Fold change vs veh, WDSUB1 / Fold change vs veh, HSP90B1 /// MIR3652 / RFU, ADSS / Fold change vs veh, ADSS / RFU, GK / Fold change vs veh, GK / RFU, ZNF148 / Fold change vs veh, ZNF148 / RFU, TAF9 / Fold change vs veh, TAF9 / RFU, SLC1A5 / Fold change vs veh, SLC1A5 / RFU, SLMO2 / Fold change vs veh, SLMO2 / RFU, ABCC4 / Fold change vs veh, ABCC4 / RFU, LOC101060439 /// RAP1B / Fold change vs veh, LOC101060439 /// RAP1B / RFU, RFX7 / Fold change vs veh, RFX7 / RFU, GTPBP10 / Fold change vs veh, GTPBP10 / RFU, CNEP1R1 / Fold change vs veh, CNEP1R1 / RFU, BIVM-ERCC5 /// ERCC5 / Fold change vs veh, BIVM-ERCC5 /// ERCC5 / RFU, ILF3 / Fold change vs veh, ILF3 / RFU 11762660_at / Fold change /veh 11762660_at / RFU VCAN (11757783_s_at) / Fold change /veh VCAN (11757783_s_at) / RFU DDX43 (11728927_at) / Fold change /veh DDX43 (11728927_at) / RFU KRT8 (11758188_x_at) / Fold change /veh KRT8 (11758188_x_at) / RFU NKD1 (11759106_at) / Fold change /veh NKD1 (11759106_at) / RFU SRD5A1 (11742802_a_at) / Fold change /veh SRD5A1 (11742802_a_at) / RFU TPSAB1 /// TPSB2 (11721975_s_at) / Fold change /veh TPSAB1 /// TPSB2 (11721975_s_at) / RFU GSTM3 (11746129_a_at) / Fold change /veh GSTM3 (11746129_a_at) / RFU IL23R (11737362_x_at) / Fold change /veh IL23R (11737362_x_at) / RFU TMEM51 (11727254_a_at) / Fold change /veh TMEM51 (11727254_a_at) / RFU PIWIL2 (11732686_x_at) / Fold change /veh PIWIL2 (11732686_x_at) / RFU ORM1 (11744905_x_at) / Fold change /veh ORM1 (11744905_x_at) / RFU CCDC152 (11743942_at) / Fold change /veh CCDC152 (11743942_at) / RFU ECM1 (11717891_a_at) / Fold change /veh ECM1 (11717891_a_at) / RFU IL23R (11748794_a_at) / Fold change /veh IL23R (11748794_a_at) / RFU TNFAIP8L3 (11732012_x_at) / Fold change /veh TNFAIP8L3 (11732012_x_at) / RFU MBOAT4 (11741988_at) / Fold change /veh MBOAT4 (11741988_at) / RFU 11764193_at / Fold change /veh 11764193_at / RFU TMEM53 (11763286_at) / Fold change /veh TMEM53 (11763286_at) / RFU MAGEB2 (11727129_at) / Fold change /veh MAGEB2 (11727129_at) / RFU TMEM200A (11744735_a_at) / Fold change /veh TMEM200A (11744735_a_at) / RFU CCDC152 (11751479_a_at) / Fold change /veh CCDC152 (11751479_a_at) / RFU FAM211A (11726209_a_at) / Fold change /veh FAM211A (11726209_a_at) / RFU RGS16 (11746705_a_at) / Fold change /veh RGS16 (11746705_a_at) / RFU VCAN (11755009_s_at) / Fold change /veh VCAN (11755009_s_at) / RFU RHOB (11743442_s_at) / Fold change /veh RHOB (11743442_s_at) / RFU RGS16 (11720943_a_at) / Fold change /veh RGS16 (11720943_a_at) / RFU RGS16 (11720944_at) / Fold change /veh RGS16 (11720944_at) / RFU, VPS4B / Fold change vs veh, VPS4B / RFU, CREB1 / Fold change vs veh, CREB1 / RFU, DNAJC13 / Fold change vs veh, DNAJC13 / RFU, GNAQ / Fold change vs veh, GNAQ / RFU, CDK5R1 / Fold change vs veh, CDK5R1 / RFU, ZRANB3 / Fold change vs veh, ZRANB3 / RFU, CUL4A / Fold change vs veh, CUL4A / RFU, CCNY / Fold change vs veh, CCNY / RFU, UFL1 / Fold change vs veh, UFL1 / RFU, COG3 / Fold change vs veh, COG3 / RFU, DIAPH2 / Fold change vs veh, DIAPH2 / RFU, SKA2 / Fold change vs veh, SKA2 / RFU, AFF3 / Fold change vs veh, AFF3 / RFU, LMF1 / Fold change vs veh, LMF1 / RFU, IPO11 / Fold change vs veh, IPO11 / RFU, DFFB / Fold change vs veh, DFFB / RFU, FOXP1 / Fold change vs veh, FOXP1 / RFU, CARD8 / Fold change vs veh, CARD8 / RFU, STRN3 / Fold change vs veh, STRN3 / RFU, ADK / Fold change vs veh, ADK / RFU, RASSF2 / Fold change vs veh, RASSF2 / RFU, WIPF1 / Fold change vs veh, WIPF1 / RFU, LARP1B / Fold change vs veh, LARP1B / RFU, RASA1 / Fold change vs veh, RASA1 / RFU, RB1 / Fold change vs veh, RB1 / RFU, PPFIA1 / Fold change vs veh, PPFIA1 / RFU, MAT2A / Fold change vs veh, MAT2A / RFU, CCT5 / Fold change vs veh, CCT5 / RFU, WDR92 / Fold change vs veh, WDR92 / RFU, CUX1 / Fold change vs veh, CUX1 / RFU, TTC7A / Fold change vs veh, TTC7A / RFU, TMEM135 / Fold change vs veh, TMEM135 / RFU, DEPTOR / Fold change vs veh, DEPTOR / RFU, CPM / Fold change vs veh, CPM / RFU, DNAJB6 / Fold change vs veh, DNAJB6 / RFU, CACNA2D3 / Fold change vs veh, CACNA2D3 / RFU, DTX4 / Fold change vs veh, DTX4 / RFU, TFCP2 / Fold change vs veh, TFCP2 / RFU, GMCL1 /// GMCL1P1 / Fold change vs veh, GMCL1 /// GMCL1P1 / RFU, AEBP2 / Fold change vs veh, AEBP2 / RFU, SNHG1 /// SNORD22 /// SNORD25 /// SNORD26 /// SNORD27 /// SNORD28 /// SNORD29 /// SNORD31 / Fold change vs veh, SNHG1 /// SNORD22 /// SNORD25 /// SNORD26 /// SNORD27 /// SNORD28 /// SNORD29 /// SNORD31 / Fold change (Aza/veh), C12orf56 (ProbeSet 11735607_a_at) / Fold change (ACY-1035/veh), C12orf56 (ProbeSet 11735607_a_at) / Fold change (Aza/veh), FGFR1OP (ProbeSet 11751329_s_at) / Fold change (ACY-1035/veh), FGFR1OP (ProbeSet 11751329_s_at) / Fold change (Aza/veh), VPS36 (ProbeSet 11739960_a_at) / Fold change (ACY-1035/veh), VPS36 (ProbeSet 11739960_a_at) / RFU SYPL1 (11715823_x_at) / Fold change /veh SYPL1 (11715823_x_at) / RFU IGFBP7 (11715501_s_at) / Fold change /veh IGFBP7 (11715501_s_at) / RFU REEP3 (11722064_at) / Fold change /veh REEP3 (11722064_at) / RFU IGLL1 (11728026_x_at) / Fold change /veh IGLL1 (11728026_x_at): dose or concentration left out as unconfirmed
Settings: MV-4-11 cells, 48 hours

Nc1ccc(-c2cccs2)cc1NC(=O)c1ccc2c(c1)cc(C1CC1)n2CCN1CCOCC1 [ACY-1035]
RFU C10orf10 (11716522_x_at): 43.57 RFU
